# Patent US8652846B2, “Medium derived from stem cells as a pharmaceutical composition” (Omnicyte Limited, priority 2008, dated 2014)
# Legend:
# Rat liver cells [1] = test: Viability of liver cells exposed to thioacetamide (mitochondrial dehydrogenase activity), OmniCytes without cell contact; assay type: cell-based; details: rat liver cells exposed to TAA only
# Experimental: (§1) Rat liver cells were exposed to the hepatotoxin thioacetamide (TAA), which induces liver damage such as cirrhosis and fibrosis. The control was only exposed to TAA, whereas the experimental group was also exposed to OmniCytes without cell contact. Cell viability (expressed as mitochondrial dehydrogenase activity) was assessed.
# Rat liver cells [2] = test: Bilirubin levels of liver cells exposed to thioacetamide, OmniCytes without cell contact; assay type: cell-based; details: liver cells exposed to TAA only
# Experimental: as §1
# Liver function was also assayed by measuring bilirubin levels. Aberrantly high levels of bilirubin are typically indicative of a liver disorder or malfunction.
# [3] = system: A549 lung cancer cell line; test: Apoptosis of A549 cells co-cultured with OmniCytes (direct cell contact), FACS Annexin V/7-AAD; assay type: cell-based, human; details: A549, control group: staurosporine alone, plate without membrane
# Experimental: (§2) Human non-small-cell lung cancer line A549 was obtained from American Type Culture Collection (catalogue number CCL-185, Rockville, Md., USA) and grown in Ham's F 12-K medium supplemented with 10% fetal bovine serum and 1% penicillin/streptomycin in a 37° C. humidified incubator with 5% CO2.
# (§3) 3×10^5 cancer cells were plated into the bottom of 24 mm Transwell 6 well plates with or without […] pore polycarbonate membrane insert (Corning Life Sciences, USA) with 2 mL of the appropriate cell culture medium. […]
# (§4) To determine effect of OmniCytes on apoptosis, 3×10^5 OmniCytes were added 24 hours after the onset of apoptosis induction either to the top of the Transwell insert with 1 ml α-MEM (Gibco, UK) supplemented with 30% FBS (Gibco, UK) and 10% GM-MIX (for no contact conditions) or directly into the same well as the cells (for contact conditions). […] After 24 or 48 hours the inserts were removed and the cancer cells analysed for apoptosis and Bcl-2, Bcl-xL and Bax expression.
# (§5) Apoptosis was analysed using the method of staining with fluorescein isothiocyanate (FITC)-Annexin V and 7-AAD-FITC previously described by Ikewaki et al. (2007). […] FITC-Annexin V staining was measured in FL1-H and FITC-7-AAD staining in FL3-H. […]
# [4] = system: A549 lung cancer cell line; test: Apoptosis of A549 cells with OmniCytes in Transwell assay (no cell contact), FACS Annexin V/7-AAD; assay type: cell-based, human; details: A549, control group: staurosporine alone, Transwell with membrane
# Experimental: as §2, §3, §4, §5
# [5] = system: A549 lung cancer cell line; test: Apoptosis of A549 cells with OmniCytes in Transwell assay (no cell contact), DAPI nuclear staining, immuno-fluorescent microscopy; assay type: cell-based, human; details: A549, control group: staurosporine alone
# Experimental: 3×10^5 cancer cells were plated into the bottom of 24 mm Transwell 6 well plates with or without […] pore polycarbonate membrane insert (Corning Life Sciences, USA) with 2 mL of the appropriate cell culture medium. Transwell plates with a polycarbonate membrane insert allow the exchange of soluble factors but prevent cell-cell contact, whereas Transwell plates without the membrane allow cell to cell contact. After 24 hours apoptosis was induced in cancer cells according to the designated protocol. Cells were incubated at 37° C. in 5% CO2/95% air. […]
# as §4
# 10^5 cells were fixed using 4% paraformaldehyde (PFA) for 15 minutes at room temperature and washed 3 times with PBS (Gibco, UK). […] Cells were visualised on a Zeiss fluorescent microscope and analysed using the Metamorph programme. […]
# For each sample, a minimum of 5 random fields were assessed and at least 250 cells were counted. […]
# A549 lung cancer cells = test: TNF-alpha blocking antibody study: A549 cells with staurosporine and OmniCytes without direct cell contact; assay type: cell-based, human; details: A549, control: staurosporine, OmniCyte-free
# Experimental: The effect of TNF-alpha blocking antibodies was tested. A549 lung cancer cells were exposed to staurosporine and OmniCytes were added without direct cell contact. The control was OmniCyte-free. TNF-alpha blocking antibodies (Abeam™, Cambridge, UK) at two different concentrations (5 or 10 μg/mL) were added.
Structure (SMILES),cell viability (mitochondrial dehydrogenase activity) (Rat liver cells [1]),bilirubin levels (Rat liver cells [2]),mean of apoptosis (Annexin V positive cells) [3],apoptosis (Annexin V positive cells) [4],apoptosis by nuclear staining (DAPI) [5],apoptosis (A549 lung cancer cells)
"CC(=N)S [TAA, thioacetamide]",significantly decreased cell viability,caused bilirubin levels to rise,–,–,–,–
CN[C@@H]1C[C@H]2O[C@@](C)([C@@H]1OC)n1c3ccccc3c3c4c(c5c6ccccc6n2c5c31)C(=O)NC4 [staurosporine],–,–,22.77%±4.87,26.85%±2.15,18.32%±1.81,22.13%±0.74
